Assay results from patent US20150250824A1, “METHODS AND COMPOSITIONS FOR EXPANSION OF STEM CELLS AND OTHER CELLS” (The Research Foundation For The State University Of New York, priority 2014, published 2015).
“Also recorded” adds a separate entry of the source. Like-named read-outs stand apart in the source and are kept apart here.

Legend:
[1] = tested on: CD34+ cells isolated from peripheral blood of G-CSF-mobilized donors; test: Ex vivo culture of mobilized peripheral blood CD34+ cells with compounds, CD34/CD38 flow cytometry; type: cell-based, human; conditions: minimal cytokines
Method: CD34+ cells were isolated from cord blood or from peripheral blood of G-CSF-mobilized adult donors and cultured as follows. Mononuclear cells (MNCs) were isolated using a simple red blood cell lysis (15 minutes at room temperature using BD PharmLyse) or using Ficoll-Paque density gradient centrifugation (Jaatinen and Laine, Current Protocols Stem Cell Biol. 1:2A.1.1-2A.1.4. (2007)). The cells were then incubated with MACS CD34+ Microbead kit (Miltenyi Biotec, Auburn, Calif.) and run through a magnetic column resulting in selection for CD34+ cells. […] Human cortex neural stem cell (hcx NSC) cells were purchased from Millipore.
CD34+ cells were cultured in […] medium ([…] Technologies, Vancouver, BC, Canada) supplemented with 10% FBS, 100 ng/ml hSCF (human stem cell factor), 100 ng/ml hTPO (human thrombopoietin), 100 ng/ml hFLT-3 ligand (Human Fms-related Tyrosine Kinase 3) (Peprotech, Rocky Hill, N.J., USA) and 100 U/ml penicillin/streptomycin (Gibco). Human cortex Neural Progenitor Cell line (hcx NSC) was maintained in ReNcell medium: ReNcell NSC Maintenance medium (Millipore) supplemented with 20 ng/ml human EGF, 20 ng/ml human bFGF (Peprotech) and 100 U/ml penicillin/streptomycin. For expansion of cells targeted for cell sorting, we used the same media containing a different cytokine cocktail of 100 ng/ml SCF, TPO and 10 ng/ml IL-3.
(§1) Cells were centrifuged for 5 minutes at 200 G at 4° C. Cells were resuspended with CD34, 38 and/or 41 conjugated antibodies for 30 minutes on ice. Cells were then washed with 2 ml of PBS and centrifuged for 5 minutes at 200 G at 4° C. The final pellet was resuspended using 300 μl of 2% formalin.
CD34+ cells isolated from peripheral blood of G-CSF-mobilized donors were cultured for 11 days with minimal cytokines and the 4 chemical cocktail (C6FZ). […] The population bearing CD34+/CD38− is associated with long-term repopulating HSCs.
CD34+ cells isolated from the peripheral blood of G-CSF-mobilized donors were next cultured for 11 days with minimal cytokines and the individual compounds, C, 6, F and Z (FIG. 13).

[2] = tested on: bone marrow CD34+ cells
Method: 616452 (also called RepSox), was purchased separately from Biovision and Millipore. […] A fresh aliquot of the chemical was used at every media change and the final concentration in media is 10 μM.
as §1
Flow cytometry study was used to analyze the immunophenotype of cultured cells. As mature, large megakaryocytes may not be detectable by flow cytometry, bone marrow CD34+ cells were cultured for 4 days in order to detect younger, small megakaryocytes. […] However, flow analysis of megakaryocytes is known to be misleading due to the sheer size of the megakaryocytes, which can have a diameter ranging from 20 um to 120 um.

[3] = tested on: CD34+ cells isolated from human umbilical CB; type: cell-based
Method: Megakaryocytes derived from CB in vitro are usually smaller than megakaryocytes derived from bone marrow or mobilized peripheral blood from adults. Small megakaryocyte size may contribute to delayed platelet engraftment when cord blood is used for bone marrow transplantation. To test whether 616452 is able to increase fetal/neonatal megakaryocyte size and ploidy, CD34+ cells isolated from human umbilical CB were cultured in StemSpan SFEM containing SCF, TPO and Flt-3 Ligand. CB CD34+ cells in the presence of TPO after 4 or 8 day culture, were morphologically consistent of a relative homogenous population of small cells (FIG. 19A) and megakaryocytic features such as large nuclear size and cytoplasmic mass were hardly detectable.
One of the unique characteristics of megakaryocytes is the ploidy development of their nuclei, which can be easily measured using propidium iodide (PI), a fluorescent intercalating agent that binds to nucleic acids. Megakaryocyte (Mk) ploidy correlates well with their maturation and platelet production. […] Out of 10,000 events, the control cells only elicited only 1 cell with a ploidy of 16N and nothing thereon greater (FIG. 20A).

[4] = tested on: CD41+ cells sorted from cultured CB CD34+ cells
Method: FIG. 22. […] CB CD34+ cells were cultured with TPO, SCF, IL-3 for 7 days prior for CD41 selection by flow cytometry.
Cells were isolated for nestin (NSCs) and FLK-1 (hemangioblasts) before further differentiation. For cell sorting, cells were centrifuged for 5 minutes at 200 G at 4° C. and resuspended with 25 μl of CD41-FITC antibody for 30 minutes on ice. Cells are then washed gently with PBS and centrifuged for 5 minutes at 200 G at 4° C. Cells are then suspended at a concentration of 10^6 cells/ml of PBS containing 2% FBS. Cells are sorted via FACS Aria.
To test this issue and the extent of megakaryocytic population in response to the chemical induction, we cultured HUBC CD34^+ cells for 12-14 days in a media specific to megakaryocyte expansion (Nikougoftar Zarif, M., et al., Cell journal 13:173-178 (2011)). The cells were labeled with a conjugated CD41 antibody and sorted by flow cytometry sorting.

[5] = tested on: CD41− cells; conditions: same conditions as CD41+ cells
Method: CD41− cells were also cultured under the same conditions with the control being induced using TPO and DMSO.

[6] = tested on: CB CD34+ cells
Method: FIG. 24. […] On the right is a heat map illustrating the values of expression in terms of fold increase over controls. Green is indicative of up-regulation while red is down-regulation.
Cells were analyzed via Qiagen's PAHS-054Z hematopoiesis array containing 81 genes.

[7] = tested on: C57BL/6J mice given 5-FU
Method: FIG. 25. […] Fifteen 8-week old mice were given IP injections of 5-FU (250 mg/kg) on day 0. Complete blood counts (CBCs) were done on day 2, 4, 6, 9, and 12. 616452 (10 mg/kg) was introduced via IP injections on day 5, 7 and 9. The above data is a representative sample of the overall experiment. Data values from day 4 are not included.
The inventors used C57BL/6J mice to administrate with SFU, a chemotherapy agent (150 mg/kg, intraperitoneal injection). Peripheral blood (100 ul each) from injected mice is collected for assessment of the peripheral blood count using a hematology analyzer.
616452 was introduced to eight of the mice at this point and was injected every other day for a total of three doses.

[8] = Giemsa-Wright staining (FIG. 19B)
[9] = greater dose vs 10 μM standard (FIG. 20B)

Cc1cccc(-c2n[nH]cc2-c2ccc3ncccc3n2)n1 [compound 616452, 2-[3-(6-methyl-2-pyridinyl)-1H-pyrazol-4-yl]-1,5-naphthyridine]
expansion of CD34+ cells ([1]; 5 days, 10 μM): rapidly expanded the CD34+ cells
effect on CD34+CD38+ and CD34+CD38− populations ([1]; 11 days, C, 6, F at 10 μM, Z at 100 nM, listed as 6): best effect enhancing both CD34+CD38- and CD34+ and CD38+ positive cells; also recorded: ability to enhance both the population of single positive (CD34+CD38−) and double positive (CD34+CD38+) cells; also recorded: the most effects on the CD34+CD38− population
fold increase of CD34+CD41+ cells ([2]; 4 days culture, flow cytometry): 2 fold
average cell size [2, 8]: around 50 um
cell size, largest [2, 8]: ≤ 90 μm
percentage of CD41 increased ([2]; after 5 days of culture, 10 μM, N>3 experiments): 50-100%
increase in the CD41+ population ([2]; within 4 days of culture, flow cytometry): ~100%
cluster formation at high concentrations [3]: no clusters in 4× concentrations or higher
culture composition by 8 days [3]: predominately composed of megakaryocytes
change in number of 8N, 16N and 32N cells between 8 and 12 days of induction ([3]; 10 μM): nearly doubled
days of culture until appearance of large megakaryocyte-like cells ([3]; 10 μM): 4 days
growth of the cells relative to control ([3]; 10 μM (1×)): 25-50%
megakaryocytic features (large nuclear size, cytoplasmic mass) ([3]; 4 or 8 day culture with TPO): megakaryocytes with these features were easily observed
increase of CD41 expression compared to control ([3]; 4 days induction, flow cytometry): 27%
number of cells with greater ploidy ([3]; 8 days induction): drastically increased number of cells with greater ploidy
cells of 16N ploidy out of 10,000 events ([3]; 8 days induction, PI staining): over 100 cells
CD34+CD41+ population ([3]; flow analysis (FIG. 19C)): an increase in the CD34^+ CD41^+ population
increase of the CD41+ population ([3]; flow analysis, 5 days induction (FIG. 19C)): 25-40%
fold increase over the standard in 8N cells [3, 9]: 1.68 fold
fold increase over the standard in 16N cells [3, 9]: 2.5 fold
fold increase over the standard in 32N cells [3, 9]: 6 fold
cell death ([3]; human, 48 h, 100 μM): all the cells died within 48 hours
fold increase of 4N cells over control ([3]; time dependence study): 5 fold
fold increase of 8N cells over control ([3]; time dependence study): 30 fold
fold increase of 16N cells over control ([3]; time dependence study): 80 fold
time until cells began to increase their size [4]: ≤ 2 days
cells of 8N out of 10,000 events ([4]; 8 days of induction): 2018 cells
cells of 16N out of 10,000 events ([4]; 8 days of induction): 585 cells
cells of 32N or greater out of 10,000 events ([4]; 8 days of induction): 86 cells
fold increase in 8N ([4]; 8 days, vs DMSO control): 30 fold
fold increase in the number of 4N ([4]; 8 days, vs DMSO control): 4.5 fold
cells positive in CD41 live cell stain ([4]; after 8 days of induction): 95%
cluster size ([4]; around day 4): 5-15 cells
cluster size ([4]; by day 6): 25-50 cells
cells appearing large in size by eye ([4]; day 6): approximately 80%
highest ploidy reached ([4]; within 8 days of culture): ≤ 64N
ploidy development [5]: slight increase in ploidy
PF4 expression on day 4 compared to that on day 2 [6]: more than 11 fold
genes down-regulated ([6]; day 2 of induction): one
genes down-regulated ([6]; day 4 of induction): four
platelet counts by day 12 ([7]; 10 mg/kg every other day, three doses, after 5-FU): almost twice as many platelets as normal mice
white blood cell count ([7]; chemotherapy treated mice): significant improvement or recovery of the white blood cell count
platelet counts in mice not given 5-FU ([7]; mouse, in vivo): little to no change
